Consider 27 compounds from paper PMC4780864, “Family-wide Structural Analysis of Human Numb-Associated Protein Kinases” (Structure(London, England:1993), 2016).

What all share (assay): biochemical
One test concerns the target AAK1 (Homo sapiens, UniProt Q2M2I8). Details: kinase domain; Thermal shift assay (DSF, SYPRO Orange), 2 uM kinase domain, mean delta Tm of triplicates versus DMSO. The settings on record: read-out: AAK1. On the procedure:
(§1) All measurements were performed in triplicate and mean values were reported for all compounds (Table S1). […] However, NAKs are often omitted from selectivity panels, including commercial screens.

The next test concerns the target T1, BIKE (Homo sapiens, UniProt Q9NSY1).
T1 construct: gene BMP2K; catalytic domain-containing construct
More on the design: Thermal shift assay (DSF, SYPRO Orange), 2 uM kinase domain, mean delta Tm of triplicates versus DMSO. The settings on record: read-out: BIKE. On the procedure:
as §1

A further test addresses T2, MPSK1 (Homo sapiens, UniProt O75716).
T2 construct: gene STK16; catalytic domain-containing construct
Details: Thermal shift assay (DSF, SYPRO Orange), 2 uM kinase domain, mean delta Tm of triplicates versus DMSO. The settings on record: read-out: MPSK1. Here is the method: as §1

The target of another test is T3, GAK (Homo sapiens, UniProt O14976).
T3 construct: catalytic domain-containing construct
T3 sequence (O14976 1-1311): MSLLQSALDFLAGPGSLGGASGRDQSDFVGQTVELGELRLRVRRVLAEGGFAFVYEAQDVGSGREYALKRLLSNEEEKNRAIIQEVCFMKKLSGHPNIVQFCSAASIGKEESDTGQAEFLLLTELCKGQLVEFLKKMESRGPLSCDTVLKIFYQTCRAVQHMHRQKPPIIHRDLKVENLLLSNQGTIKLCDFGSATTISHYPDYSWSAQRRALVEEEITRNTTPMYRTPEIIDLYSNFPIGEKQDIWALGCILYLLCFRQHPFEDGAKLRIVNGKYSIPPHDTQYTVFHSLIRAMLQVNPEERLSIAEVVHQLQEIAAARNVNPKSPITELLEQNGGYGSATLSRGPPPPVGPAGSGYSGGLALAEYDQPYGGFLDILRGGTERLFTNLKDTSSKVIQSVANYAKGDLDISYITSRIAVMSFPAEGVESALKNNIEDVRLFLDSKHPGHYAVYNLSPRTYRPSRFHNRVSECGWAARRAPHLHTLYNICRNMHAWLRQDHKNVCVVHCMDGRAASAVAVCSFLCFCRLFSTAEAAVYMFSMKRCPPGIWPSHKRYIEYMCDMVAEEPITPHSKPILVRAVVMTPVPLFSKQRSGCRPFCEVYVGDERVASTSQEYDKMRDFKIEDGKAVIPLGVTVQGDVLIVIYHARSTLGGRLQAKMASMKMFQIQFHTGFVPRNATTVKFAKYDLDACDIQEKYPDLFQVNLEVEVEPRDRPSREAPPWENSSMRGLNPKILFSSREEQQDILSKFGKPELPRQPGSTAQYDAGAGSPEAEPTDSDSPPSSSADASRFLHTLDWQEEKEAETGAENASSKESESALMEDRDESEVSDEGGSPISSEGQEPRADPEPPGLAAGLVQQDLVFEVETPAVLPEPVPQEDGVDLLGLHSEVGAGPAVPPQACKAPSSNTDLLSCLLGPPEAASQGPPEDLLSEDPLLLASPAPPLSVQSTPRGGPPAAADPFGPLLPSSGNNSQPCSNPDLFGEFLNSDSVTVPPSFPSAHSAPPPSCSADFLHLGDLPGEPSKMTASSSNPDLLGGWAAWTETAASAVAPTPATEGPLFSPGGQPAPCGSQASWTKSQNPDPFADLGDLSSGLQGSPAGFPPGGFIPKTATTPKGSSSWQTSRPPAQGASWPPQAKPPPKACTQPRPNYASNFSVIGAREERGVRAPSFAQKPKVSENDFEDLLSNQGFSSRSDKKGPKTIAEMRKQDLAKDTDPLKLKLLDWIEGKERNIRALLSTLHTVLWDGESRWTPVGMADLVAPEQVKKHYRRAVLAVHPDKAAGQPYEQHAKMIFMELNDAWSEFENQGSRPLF
More on the design: Thermal shift assay (DSF, SYPRO Orange), 2 uM kinase domain, mean delta Tm of triplicates versus DMSO. The conditions noted are these: read-out: GAK. Here is the method:
as §1

T2 sequence (O75716 whole entry, the tested form may be a part): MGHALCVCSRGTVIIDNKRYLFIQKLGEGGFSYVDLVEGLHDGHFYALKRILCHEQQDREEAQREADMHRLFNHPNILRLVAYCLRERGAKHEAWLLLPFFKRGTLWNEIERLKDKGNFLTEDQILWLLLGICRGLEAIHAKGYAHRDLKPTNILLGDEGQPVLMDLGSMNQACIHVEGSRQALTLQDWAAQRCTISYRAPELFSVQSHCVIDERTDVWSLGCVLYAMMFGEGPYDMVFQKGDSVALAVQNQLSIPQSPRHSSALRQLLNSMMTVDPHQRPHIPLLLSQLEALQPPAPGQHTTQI
Chain of AAK1 (Q2M2I8 27-365 limits assumed): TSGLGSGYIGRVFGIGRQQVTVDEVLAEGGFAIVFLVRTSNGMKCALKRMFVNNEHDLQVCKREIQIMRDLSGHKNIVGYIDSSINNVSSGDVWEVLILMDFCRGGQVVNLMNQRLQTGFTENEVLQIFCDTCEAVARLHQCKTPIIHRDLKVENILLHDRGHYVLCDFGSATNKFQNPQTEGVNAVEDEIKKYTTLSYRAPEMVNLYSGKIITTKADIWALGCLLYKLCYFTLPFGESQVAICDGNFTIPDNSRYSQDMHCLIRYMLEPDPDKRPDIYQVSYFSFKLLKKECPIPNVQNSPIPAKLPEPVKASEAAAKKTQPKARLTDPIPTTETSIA
T1 sequence (Q9NSY1 whole entry, the tested form may be a part): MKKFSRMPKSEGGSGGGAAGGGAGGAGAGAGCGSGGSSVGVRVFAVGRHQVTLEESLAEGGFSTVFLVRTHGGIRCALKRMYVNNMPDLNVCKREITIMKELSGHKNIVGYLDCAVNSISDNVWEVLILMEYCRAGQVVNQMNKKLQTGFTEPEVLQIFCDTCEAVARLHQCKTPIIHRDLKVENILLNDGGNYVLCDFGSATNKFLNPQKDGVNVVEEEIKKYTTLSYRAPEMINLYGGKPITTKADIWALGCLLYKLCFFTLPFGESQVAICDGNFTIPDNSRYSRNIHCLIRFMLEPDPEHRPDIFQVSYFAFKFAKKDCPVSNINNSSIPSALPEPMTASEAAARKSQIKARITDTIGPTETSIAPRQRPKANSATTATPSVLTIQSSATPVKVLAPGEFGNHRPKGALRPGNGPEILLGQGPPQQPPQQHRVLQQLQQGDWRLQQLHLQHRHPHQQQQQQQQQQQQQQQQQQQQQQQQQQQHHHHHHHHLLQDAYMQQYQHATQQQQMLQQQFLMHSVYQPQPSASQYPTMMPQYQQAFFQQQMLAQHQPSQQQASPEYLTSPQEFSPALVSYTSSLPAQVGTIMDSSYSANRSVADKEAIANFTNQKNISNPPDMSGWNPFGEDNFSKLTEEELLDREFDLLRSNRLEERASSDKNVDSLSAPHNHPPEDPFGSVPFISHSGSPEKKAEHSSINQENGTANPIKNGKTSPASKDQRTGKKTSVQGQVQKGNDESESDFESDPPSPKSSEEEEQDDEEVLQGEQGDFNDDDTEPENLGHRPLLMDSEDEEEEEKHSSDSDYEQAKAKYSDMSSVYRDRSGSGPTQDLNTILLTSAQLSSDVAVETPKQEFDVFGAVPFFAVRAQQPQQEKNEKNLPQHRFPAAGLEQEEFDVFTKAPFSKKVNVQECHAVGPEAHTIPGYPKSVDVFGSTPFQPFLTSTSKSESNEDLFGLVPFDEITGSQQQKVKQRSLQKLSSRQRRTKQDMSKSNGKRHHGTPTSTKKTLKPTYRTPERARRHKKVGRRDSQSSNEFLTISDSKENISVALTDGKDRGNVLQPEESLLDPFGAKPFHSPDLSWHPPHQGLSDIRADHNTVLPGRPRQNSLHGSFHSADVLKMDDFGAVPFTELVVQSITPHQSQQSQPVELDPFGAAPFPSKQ

Take `COc1cc2nccc(Oc3ccc(NC(=O)NC4CC4)c(Cl)c3)c2cc1C(N)=O` [Lenvatinib]: the ΔTm at 12.5 µM stood at 2.07 °C at AAK1, 2.49 °C on BIKE, 1.5 °C at MPSK1 and 2.03 °C on GAK.
The like results for `C[C@]12O[C@H](C[C@]1(O)CO)n1c3ccccc3c3c4c(c5c6ccccc6n2c5c31)CNC4=O` [Lestaurtinib] were, in that order, 13.6 °C, 16.5 °C, 11.1 °C and 10.8 °C.
The like results for `Cc1ccc(F)c(NC(=O)Nc2ccc(-c3cccc4[nH]nc(N)c34)cc2)c1` [Linifanib] were, in that order, 1.96 °C, 5.72 °C, 5.04 °C and 2.49 °C.
Take `C[C@]1(O)C[C@@H](c2nc(-c3ccc4ccc(-c5ccccc5)nc4c3)c3c(N)nccn32)C1` [Linsitinib]: the ΔTm at 12.5 µM was 0.277 °C on AAK1, 0.903 °C at BIKE, 0.73 °C on MPSK1 and -0.6 °C on GAK.
The like results for `Cn1cnc2c(F)c(Nc3ccc(Br)cc3F)c(C(=O)NOCCO)cc21` [MEK-162] were, in that order, 0.197 °C, 0.367 °C, 0.6 °C and -0.617 °C.
The like results for `C=CCn1c(=O)c2cnc(Nc3ccc(N4CCN(C)CC4)cc3)nc2n1-c1cccc(C(C)(C)O)n1` [MK-1775] were, in that order, 4.03 °C, 4.38 °C, 1.18 °C and 5.08 °C.
The like results for `NC1(c2ccc(-c3nc4ccn5c(=O)[nH]nc5c4cc3-c3ccccc3)cc2)CCC1` [MK-2206] were, in that order, 1.1 °C, 0.637 °C, 1.1 °C and -0.83 °C.
As to `Cc1ccc(NC(=O)c2ccc(CN3CCN(C)CC3)cc2)cc1Nc1nc(-c2cccnc2)cs1` [Masitinib], the ΔTm at 12.5 µM at AAK1 was 0.547 °C; at BIKE, 0.833 °C; on MPSK1 it was 0.99 °C; at GAK, 1.98 °C.
The like results for `CO[C@@H]1[C@H](N(C)C(=O)c2ccccc2)C[C@H]2O[C@]1(C)n1c3ccccc3c3c4c(c5c6ccccc6n2c5c31)C(=O)NC4` [Midostaurin] were, in that order, 12.8 °C, 14.9 °C, 10.4 °C and 6.33 °C.
The like results for `CNC(=O)c1nn(C)c2c1C(C)(C)Cc1cnc(Nc3ccc(N4CCN(C)CC4)cc3)nc1-2` [Milciclib] were, in that order, 5.61 °C, 7.73 °C, 10.1 °C and 10.6 °C.
The like results for `N#CCNC(=O)c1ccc(-c2ccnc(Nc3ccc(N4CCOCC4)cc3)n2)cc1` [Momelotinib] were, in that order, 14.6 °C, 15 °C, 11.1 °C and 7.03 °C.
`CC1(C)CNc2cc(NC(=O)c3cccnc3NCc3ccncc3)ccc21` [Motesanib]: the ΔTm at 12.5 µM worked out at 0.467 °C at AAK1, 0.3 °C at BIKE, 0.7 °C on MPSK1 and 0.437 °C at GAK.
The like results for `CCN1CCN(c2ccc(Nc3cc(N(C)C(=O)Nc4c(Cl)c(OC)cc(OC)c4Cl)ncn3)cc2)CC1` [NVP-BGJ398] were, in that order, 0.41 °C, 0.763 °C, 0.66 °C and -0.197 °C.
The like results for `CCOc1cc2ncc(C#N)c(Nc3ccc(OCc4ccccn4)c(Cl)c3)c2cc1NC(=O)/C=C/CN(C)C` [Neratinib] were, in that order, 0.98 °C, 1.97 °C, 0.927 °C and 2.52 °C.
The like results for `Cc1cn(-c2cc(NC(=O)c3ccc(C)c(Nc4nccc(-c5cccnc5)n4)c3)cc(C(F)(F)F)c2)cn1` [Nilotinib] were, in that order, 1.13 °C, 1.06 °C, 2.48 °C and 5.36 °C.
Consider `COc1cccc2cc(-c3nc([C@H]4CC[C@H](C(=O)O)CC4)n4ncnc(N)c34)[nH]c12` [OSI-027], for which the ΔTm at 12.5 µM at AAK1 is 0.0767 °C; on BIKE it was 0.31 °C; at MPSK1, 0.92 °C; at GAK it was -0.547 °C.
The like results for `Cc1[nH]c(/C=C2\C(=O)Nc3ccccc32)c(C)c1CCC(=O)O` [Orantinib] were, in that order, 6.55 °C, 12 °C, 5.87 °C and 3.99 °C.
The like results for `CN(c1ccccc1CNc1nc(Nc2ccc3c(c2)CC(=O)N3)ncc1C(F)(F)F)S(C)(=O)=O` [PF 431396] were, in that order, 4.81 °C, 9.5 °C, 13.9 °C and 5.02 °C.
The like results for `Cn1cc(-c2[nH]c3cc(NC(=O)[C@H](N)C4CCCCC4)cc4c3c2C=NNC4=O)cn1` [PF-00477736] were, in that order, 17.8 °C, 19.1 °C, 6.45 °C and 9.49 °C.
`Nc1nccc(-c2c(-c3ccc(F)cc3)ncn2C2CCCCC2)n1` [PF-670462]: the ΔTm at 12.5 µM is 1.68 °C at AAK1, 1.04 °C on BIKE, 1.83 °C on MPSK1 and 6.13 °C at GAK.
With `Cc1nc(Nc2n[nH]c3c2CN(C(=O)N[C@H](CN(C)C)c2ccccc2)C3(C)C)c2sccc2n1` [PF-03758309], the ΔTm at 12.5 µM on AAK1 stood at 5.65 °C; on BIKE it was 10.6 °C; at MPSK1 it was 8.65 °C; on GAK, 4.73 °C.
The like results for `COc1ccc(-c2cc3c(C)nc(N)nc3n([C@H]3CC[C@H](OCCO)CC3)c2=O)cn1` [PF-04691502] were, in that order, 0.327 °C, 0.623 °C, 1.43 °C and -0.593 °C.
Turning to `CCc1cncnc1N1CCN(Cc2nc3ccc(C(F)(F)F)cc3[nH]2)CC1` [PF-04708671], the ΔTm at 12.5 µM on AAK1 was 0.437 °C; at BIKE, 0.45 °C; at MPSK1 it was 1.04 °C; at GAK it was -0.243 °C.
Regarding `Nc1ncnc2c1c(COc1cccc(Cl)c1)nn2C1CCOCC1` [PF-4800567], the ΔTm at 12.5 µM at AAK1 is 0.283 °C; at BIKE it was 0.437 °C; at MPSK1, 0.933 °C; at GAK, -0.663 °C.
The like results for `Cc1ccc([N+](=O)[O-])cc1S(=O)(=O)N(C)/N=C/c1cnc2ccc(Br)cn12` [PIK-75] were, in that order, 5 °C, 7.9 °C, 9.97 °C and 3.07 °C.
The like results for `CC(=O)c1c(C)c2cnc(Nc3ccc(N4CCNCC4)cn3)nc2n(C2CCCC2)c1=O` [Palbociclib] were, in that order, 2.94 °C, 5.02 °C, 7.72 °C and 0.733 °C.
Take `Cc1ccc(Nc2nccc(N(C)c3ccc4c(C)n(C)nc4c3)n2)cc1S(N)(=O)=O` [Pazopanib]: the ΔTm at 12.5 µM is 3.85 °C at AAK1, 7.25 °C on BIKE, 7.31 °C at MPSK1 and 2.72 °C on GAK.
